Key:
hPASK (kinase domain) = hPASK (kinase domain) (Homo sapiens (Human), UniProt Q96RG2); experiment: PAS Kinase Luminescence Assay (Kinase-Glo), kinase domain; type: biochemical
Method: PAS Kinase Luminescence Assay
One assay for purified hPASK activity utilizes the Kinase-Glo Luminescent Kinase Assay (Promega), which quantifies the amount of ATP remaining in solution following kinase reaction. The assay is carried out in a 96-well plate format and is performed by adding a volume of Kinase-Glo Reagent (Promega, catalog #V3771) equal to the volume of solution in the well of a completed kinase reaction. Kinase-Glo reagent contains Luciferase and its substrate. After addition to a kinase reaction it allows to measure luminescence. The amount of ATP left in solution at the time of Kinase-Glo Plus addition is directly proportional to the luminescence that is measured in each well, and inversely correlated with kinase activity.
Purified hPASK from insect cells (0.02 μg) is added to a 50 μL reaction mix containing 40 mM HEPES (pH 7.0), 100 mM KCl, 5 mM MgCl2, 1 mM DTT and 1 μg of MBP protein. Inhibitory compounds are then added and the mixture is incubated for 10 min at 25° C. before adding 5 μL of ATP (at desired concentration). The reaction is allowed to proceed at 25° C. for 1 hour before adding 50 μL of Kinase-Glo reagent. The luminescence is measured as soon as 10 minutes after Kinase-Glo reagent is added.
Results are shown below in Table 1, where NT means not tested.

CK2a2 = CK2a2 (Homo sapiens (Human), UniProt P19784); experiment: Biochemical Assay for CK2 Activity; conditions: 33P-ATP radiochemical assay; read-out: IC50 CK2 a2
Sequence of CK2a2 (P19784 whole entry): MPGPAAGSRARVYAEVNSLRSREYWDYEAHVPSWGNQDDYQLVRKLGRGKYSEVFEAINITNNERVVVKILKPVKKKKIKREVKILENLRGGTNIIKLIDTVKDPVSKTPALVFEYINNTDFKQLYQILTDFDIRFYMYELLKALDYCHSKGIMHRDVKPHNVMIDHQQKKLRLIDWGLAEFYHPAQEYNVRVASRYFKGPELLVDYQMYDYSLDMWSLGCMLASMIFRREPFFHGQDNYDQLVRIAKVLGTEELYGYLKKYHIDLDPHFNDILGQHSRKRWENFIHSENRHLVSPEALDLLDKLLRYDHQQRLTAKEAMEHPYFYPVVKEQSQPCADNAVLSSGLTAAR
Method in brief: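 GST-tagged full-length human CK2a2 from insect cells (1.2 nM) with 20 μM RRRDDDSDDD peptide, in pH 7.5 HEPES buffer with MgCl2, DTT and 1% DMSO. Reactions started with ³³P-ATP were run for 120 min at room temperature. Substrate phosphorylation was measured by P81 phosphocellulose filter binding and scintillation counting.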

PASK [1] = biological target: PASK (UniProt #Q96RG2; residues 879-1323) (Homo sapiens (Human), UniProt Q96RG2); experiment: PASK ATP Radiochemical Assay; type: biochemical; conditions: 33P-ATP radiochemical assay; read-out: IC50 Kinase Domain
Sequence of PASK (UniProt #Q96RG2; residues 879-1323) (Homo sapiens (Human), UniProt Q96RG2) (Q96RG2 879-1323): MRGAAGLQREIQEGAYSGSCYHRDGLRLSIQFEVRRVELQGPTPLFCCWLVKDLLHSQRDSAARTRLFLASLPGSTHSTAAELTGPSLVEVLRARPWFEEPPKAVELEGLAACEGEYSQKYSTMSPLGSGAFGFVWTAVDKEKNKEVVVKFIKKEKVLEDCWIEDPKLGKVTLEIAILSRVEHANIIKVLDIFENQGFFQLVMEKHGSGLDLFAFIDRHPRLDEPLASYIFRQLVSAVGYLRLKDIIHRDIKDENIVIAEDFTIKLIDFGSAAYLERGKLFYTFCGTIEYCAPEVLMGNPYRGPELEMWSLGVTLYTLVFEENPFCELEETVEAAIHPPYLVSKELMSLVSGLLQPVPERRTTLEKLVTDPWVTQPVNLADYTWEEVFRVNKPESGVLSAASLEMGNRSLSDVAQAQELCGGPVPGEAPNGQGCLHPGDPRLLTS
Method in brief: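 Radiometric kinase assay: GST-tagged PASK (5 nM final) from insect cells with Myelin Basic Protein (20 μM) in HEPES pH 7.5 buffer, 1% DMSO; reaction started with ^33P-ATP, 120 min at room temperature. Substrate phosphorylation captured on P81 paper and read by scintillation counting.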

PASK [2] = biological target: PASK (Homo sapiens (Human), UniProt Q96RG2); experiment: PAS Kinase FRET Assay; type: biochemical; conditions: TR-FRET assay; read-out: IC50 Kinase Domain
Sequence of PASK (Homo sapiens (Human), UniProt Q96RG2) (Q96RG2 999-1251): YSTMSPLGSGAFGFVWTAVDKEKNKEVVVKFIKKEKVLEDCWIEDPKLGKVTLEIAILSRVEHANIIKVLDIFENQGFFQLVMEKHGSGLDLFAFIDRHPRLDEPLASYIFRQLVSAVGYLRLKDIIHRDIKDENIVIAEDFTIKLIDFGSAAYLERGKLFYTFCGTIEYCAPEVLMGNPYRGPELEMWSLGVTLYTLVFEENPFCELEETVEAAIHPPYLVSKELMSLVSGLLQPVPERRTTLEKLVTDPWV
Method in brief: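 Reaction buffer: 50 mM HEPES, 10 mM MgCl2, 1 mM EGTA, 2 mM DTT, 0.01% Tween-20. Test compounds (eleven-point series prepared at 4× final) preceded PASK and substrate/ATP. Reaction ran 2 h at 25 °C in the dark, then stopped. Phospho-ULight peptide detected by Eu-antibody TR-FRET, 665/615 nm ratio.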

Sequence of hPASK (kinase domain) (Q96RG2 999-1251): as above

Row | SMILES | IC50 (hPASK (kinase domain)) [µM] | IC50 (CK2a2) [µM] | IC50 (PASK [1]) [µM] | IC50 (PASK [2]) [µM]
1 | Cc1cc(=O)n2nc(-c3cccc(Br)c3)cc2[nH]1 [Example 4, 2-(3-Bromo-phenyl)-5-methyl-4H-pyrazolo[1,5-a]pyrimidin-7-one] | ≤ 10 | – | – | –
2 | COc1ccc(-c2c(C)nn3c(=O)cc(-c4ccccc4)[nH]c23)cc1 [Example 20, 3-(4-Methoxy-phenyl)-2-methyl-5-phenyl-4H-pyrazolo[1,5-a]pyrimidin-7-one] | ≥ 10 | – | – | –
3 | O=c1cc(-c2ccc3c(c2)OCCO3)[nH]c2c(-c3ccccc3)cnn12 [Example 40, 5-(2,3-Dihydrobenzo[b][1,4]dioxin-6-yl)-3-phenylpyrazolo[1,5-a]pyrimidin-7(4H)-one] | ≤ 10 | ≤ 10 | – | –
4 | Cc1nn2c(=O)cc(-c3ccc4c(c3)OCCO4)[nH]c2c1-c1ccccc1 [Example 41, 5-(2,3-Dihydrobenzo[b][1,4]dioxin-6-yl)-2-methyl-3-phenylpyrazolo[1,5-a]pyrimidin-7(4H)-one] | ≤ 10 | – | – | –
5 | O=c1cc(-c2ccc3c(c2)OCO3)[nH]c2c(-c3ccccc3)cnn12 [Example 42, 5-(Benzo[d][1,3]dioxol-5-yl)-3-phenylpyrazolo[1,5-a]pyrimidin-7(4H)-one] | ≤ 10 | – | – | –
6 | O=c1cc(-c2ccc3c(c2)OCO3)[nH]c2c(-c3cccnc3)cnn12 [Example 46, 5-(Benzo[d][1,3]dioxol-5-yl)-3-(pyridin-3-yl)pyrazolo[1,5-a]pyrimidin-7(4H)-one] | ≤ 10 | – | – | –
7 | Cc1nn2c(=O)cc(-c3ccc4c(c3)OCO4)[nH]c2c1-c1cccnc1 [Example 49, 5-(Benzo[d][1,3]dioxol-5-yl)-2-methyl-3-(pyridin-3-yl)pyrazolo[1,5-a]pyrimidin-7(4H)-one] | ≤ 10 | – | – | –
8 | O=c1cc(-c2ccccc2)[nH]c2c(-c3ccccn3)cnn12 [Example 52, 5-Phenyl-3-(pyridin-2-yl)pyrazolo[1,5-a]pyrimidin-7(4H)-one] | ≤ 10 | – | – | –
9 | O=c1cc(-c2cccnc2)[nH]c2c(-c3ccc(F)cc3)cnn12 [Example 78, 3-(4-Fluorophenyl)-5-(pyridin-3-yl)pyrazolo[1,5-a]pyrimidin-7(4H)-one] | ≤ 10 | – | – | –
10 | CCc1nn2c(=O)cc(-c3ccc4[nH]nnc4c3)[nH]c2c1-c1ccccn1 [Example 201, 5-(1H-benzo[d][1,2,3]triazol-5-yl)-2-ethyl-3-(pyridin-2-yl)pyrazolo[1,5-a]pyrimidin-7(4H)-one] | – | ≤ 10 | ≤ 10 | ≤ 10
11 | CC(=O)Nc1nn2c(=O)cc(-c3ccc4c(cnn4C)c3)[nH]c2c1-c1ccccn1 [Example 205, N-(5-(1-Methyl-1H-indazol-5-yl)-7-oxo-3-(pyridin-2-yl)-4,7-dihydropyrazolo[1,5-a]pyrimidin-2-yl)acetamide] | – | ≤ 10 | ≤ 10 | ≤ 10
12 | Cc1nn2c(=O)cc(-c3ccc4c(c3)OCO4)[nH]c2c1Cc1ccccn1 [Example 210, 5-(Benzo[d][1,3]dioxol-5-yl)-2-methyl-3-(pyridin-2-ylmethyl)pyrazolo[1,5-a]pyrimidin-7(4H)-one] | – | ≤ 10 | ≤ 10 | ≤ 10
13 | O=c1cc(-c2ccc3[nH]nnc3c2)[nH]c2c(-c3cccnc3)cnn12 [Example 213, 5-(1H-Benzo[d][1,2,3]triazol-5-yl)-3-(pyridin-3-yl)pyrazolo[1,5-a]pyrimidin-7(4H)-one] | – | ≤ 10 | ≤ 10 | ≤ 10
14 | CCCNC(=O)c1cnn2c(=O)cc(-c3ccc4[nH]nnc4c3)[nH]c12 [Example 214, 5-(1H-Benzo[d][1,2,3]triazol-5-yl)-7-oxo-N-propyl-4,7-dihydropyrazolo[1,5-a]pyrimidine-3-carboxamide] | – | ≤ 10 | ≤ 10 | ≤ 10
15 | Nc1nn2c(=O)cc(-c3ccc4[nH]nnc4c3)[nH]c2c1-c1ccc(Cl)cc1 [Example 217, 2-Amino-5-(1H-benzo[d][1,2,3]triazol-5-yl)-3-(4-chlorophenyl)pyrazolo[1,5-a]pyrimidin-7(4H)-one] | – | ≤ 10 | ≤ 10 | ≤ 10
16 | O=c1cc(-c2ccc3[nH]nnc3c2)[nH]c2c(-c3ccc(Cl)cc3)cnn12 [Example 218, 5-(1H-Benzo[d][1,2,3]triazol-5-yl)-3-(4-chlorophenyl)pyrazolo[1,5-a]pyrimidin-7(4H)-one] | – | ≤ 10 | ≤ 10 | ≤ 10
17 | CCCNC(=O)c1c(N)nn2c(=O)cc(-c3ccc4[nH]nnc4c3)[nH]c12 [Example 223, 2-Amino-5-(1H-benzo[d][1,2,3]triazol-5-yl)-7-oxo-N-propyl-4,7-dihydropyrazolo[1,5-a]pyrimidine-3-carboxamide] | – | ≤ 10 | ≤ 10 | ≤ 10
18 | CCCNC(=O)c1c(N)nn2c(=O)cc(-c3ccc4[nH]nc(C)c4c3)[nH]c12 [Example 224, 2-Amino-5-(3-methyl-1H-indazol-5-yl)-7-oxo-N-propyl-4,7-dihydropyrazolo[1,5-a]pyrimidine-3-carboxamide] | – | ≤ 10 | ≤ 10 | ≤ 10
19 | CCCNC(=O)c1c(N)nn2c(=O)cc(-c3ccc(Cl)cc3)[nH]c12 [Example 225, 2-Amino-5-(4-chlorophenyl)-7-oxo-N-propyl-4,7-dihydropyrazolo[1,5-a]pyrimidine-3-carboxamide] | – | ≤ 10 | ≤ 10 | ≤ 10
20 | CCCNC(=O)c1c(O)nn2c(=O)cc(-c3ccc4c(c3)OCO4)[nH]c12 [Example 227, 5-(Benzo[d][1,3]dioxol-5-yl)-2-hydroxy-7-oxo-N-propyl-4,7-dihydropyrazolo[1,5-a]pyrimidine-3-carboxamide] | – | ≤ 10 | ≤ 10 | ≤ 10
21 | COc1c(-c2cc(=O)n3nc(N)c(-c4ccccn4)c3[nH]2)ccc2c1OCO2 [Example 234, 2-Amino-5-(4-methoxybenzo[d][1,3]dioxol-5-yl)-3-(pyridin-2-yl)pyrazolo[1,5-a]pyrimidin-7(4H)-one] | – | ≤ 10 | ≤ 10 | ≤ 10
22 | COc1c(-c2cc(=O)n3nc(O)c(-c4ccccn4)c3[nH]2)ccc2c1OCO2 [Example 235, 2-Hydroxy-5-(4-methoxybenzo[d][1,3]dioxol-5-yl)-3-(pyridin-2-yl)pyrazolo[1,5-a]pyrimidin-7(4H)-one] | – | ≤ 10 | ≤ 10 | ≤ 10
23 | COc1c(-c2cc(=O)n3nc(C)c(-c4ccccn4)c3[nH]2)ccc2c1OCO2 [Example 237, 5-(4-Methoxybenzo[d][1,3]dioxol-5-yl)-2-methyl-3-(pyridin-2-yl)pyrazolo[1,5-a]pyrimidin-7(4H)-one] | – | ≤ 10 | ≤ 10 | ≤ 10
24 | COc1cc2[nH]nnc2cc1-c1cc(=O)n2nc(N)c(-c3ccccn3)c2[nH]1 [Example 243, 2-Amino-5-(6-methoxy-1H-benzo[d][1,2,3]triazol-5-yl)-3-(pyridin-2-yl)pyrazolo[1,5-a]pyrimidin-7(4H)-one] | – | ≥ 10 | ≤ 10 | ≤ 10
25 | COc1c(-c2cc(=O)n3ncc(-c4ccccn4)c3[nH]2)ccc2[nH]nnc12 [Example 245, 5-(4-Methoxy-1H-benzo[d][1,2,3]triazol-5-yl)-3-(pyridin-2-yl)pyrazolo[1,5-a]pyrimidin-7(4H)-one] | – | ≤ 10 | ≤ 10 | ≤ 10
26 | O=c1cc(-c2cc3nn[nH]c3cc2F)[nH]c2c(-c3ccccn3)cnn12 [Example 249, 5-(6-Fluoro-1H-benzo[d][1,2,3]triazol-5-yl)-3-(pyridin-2-yl)pyrazolo[1,5-a]pyrimidin-7(4H)-one] | – | ≤ 10 | ≤ 10 | ≤ 10
27 | O=c1cc(-c2ccc(-c3ncco3)cc2)[nH]c2c(-c3ccccn3)cnn12 [Example 254, 5-(4-(Oxazol-2-yl)phenyl)-3-(pyridin-2-yl)pyrazolo[1,5-a]pyrimidin-7(4H)-one] | – | ≥ 10 | ≤ 10 | ≤ 10
28 | N#Cc1ccc(-c2cc(=O)n3ncc(-c4ccccn4)c3[nH]2)cc1 [Example 256, 4-(7-Oxo-3-(pyridin-2-yl)-4,7-dihydropyrazolo[1,5-a]pyrimidin-5-yl)benzonitrile] | – | ≥ 10 | ≤ 10 | ≤ 10
